# Data reported in EP0330017A2, “Use of thiazoles for increasing animal performance” (BOEHRINGER INGELHEIM VETMEDICA GMBH, priority 1988, dated 1989).
# What was measured:
# [1] = Performance promotion in lambs, 42-day feeding trial (weight gain, carcass quality); format: in vivo, Lämmern; details: 42-day trial
# Description: (§1) Die leistungsfördernde Wirkung der vorstehend erwähnten Thiazole wurde beispielsweise an der Verbindung N-[2-(4-Carboxymethoxyphenyl)-1-methylethenyl]-2-(2-trifluormethyl-thiazol-4-yl)morpholin wie folgt geprüft:
# 2.) 2 Gruppen von 12 Lämmern erhielten identisches Futter und Wasser ad libitum. Die eine Gruppe erhielt zusätzlich 8 ppm der vorstehend erwähnten Verbindung. Während der 42-tä-gigen Versuchsperiode wurden Gewichtszunahme und Parameter der Schlachtkörperqualität gegenüber der Kontrolle bestimmt.
# [2] = Performance promotion in pigs, 33-day feeding trial (weight gain, feed consumption, carcass quality); format: in vivo, Schweinen; details: 8 ppm test compound in feed, 33-day trial, 10 pigs
# Description: as §1
# 3.) 2 Gruppen von 10 Schweinen, wobei jedes Tier einzeln gefüttert wurde, erhielten identisches Futter und Wasser ad libitum. Die eine Gruppe erhielt zusätzlich 8 ppm der vorstehend erwähnten Verbindung. Während der 33-tägigen Versuchsperiode wurden Gewichtszunahme, Futterverbrauch der Schlachtkörperqualität gegenüber der Kontrollgruppe bestimmt.
# [3] = Performance promotion in lambs, 33-day feeding trial (weight gain, feed consumption); format: in vivo, Lämmern; details: 33-day trial
# Description: as §1
# 1.) 2 Gruppen von 7 Lämmern, wobei jedes Tier einzeln gehalten wurde, erhielten identisches Futter und Wasser ad libitum. Die eine Gruppe erhielt zusätzlich 8 ppm der vorstehend erwähnten Verbindung. Während der 33-tägigen Versuchsperiode wurden Gewichtszunahme und Futterverbrauch gegenüber der Kontrollgruppe bestimmt.
# [4] = 8 ppm test compound in feed, 12 lambs
# [5] = 8 ppm test compound in feed, 7 lambs
compound,measurement,setting,value
CC(Cc1ccc(OCC(=O)O)cc1)N1CCOC(c2csc(C(F)(F)F)n2)C1 (centres unmarked) [Testverbindung],Endgewicht,[1]; [4],"46,6 kg"
same,Gewicht des musculus longissimus dorsi,[1]; [4],"324,0 g"
same,Gewichtszunahme,[1]; [4],"320,0 g/Tag"
same,Rückenfettdicke,[1]; [4],"1,78 mm"
same,Schlachtkörperzusammensetzung: Fett,[1]; [4],"16,1%"
same,Schlachtkörperzusammensetzung: Fleisch,[1]; [4],"69,1%"
same,Schlachtkörperzusammensetzung: Knochen,[1]; [4],"14,8%"
same,"Gewicht des musculus longissimus dorsi, Abweichung zur Kontrolle","[1]; 8 ppm vs 0 ppm control, lambs","+6,9%"
same,"Schlachtkörperzusammensetzung: Fett, Abweichung zur Kontrolle","[1]; 8 ppm vs 0 ppm control, lambs","-6,9%"
same,"Schlachtkörperzusammensetzung: Fleisch, Abweichung zur Kontrolle","[1]; 8 ppm vs 0 ppm control, lambs","+1,2%"
same,"Schlachtkörperzusammensetzung: Knochen, Abweichung zur Kontrolle","[1]; 8 ppm vs 0 ppm control, lambs","+2,8%"
same,Ausschlachtung,[2],"77,2%"
same,Endgewicht,[2],"97,6 kg"
same,Futterverwertung (kg Futter/kg Zunahme),[2],"3,17 kg Futter/kg Zunahme"
same,Gewichte verschiedener Teilstücke: Rippe,[2],"7,25 kg"
same,Gewichte verschiedener Teilstücke: Schinken,[2],"7,46 kg"
same,Gewichte verschiedener Teilstücke: Schulter,[2],"9,48 kg"
same,Gewichtszunahme,[2],"754,0 g/Tag"
same,Rückenmuskelfläche,[2],"32,3 cm²"
same,Endgewicht,[3]; [5],"43,9 kg"
same,Futteraufnahme,[3]; [5],"1598,0 g/Tag"
same,Futterverwertung (kg Zunahme/kg Futter),[3]; [5],"0,161 kg Zunahme/kg Futter"
same,Gewichtszunahme,[3]; [5],"258,0 g/Tag"
same,"Futteraufnahme, Abweichung zur Kontrolle","[3]; 8 ppm vs 0 ppm control, lambs","+4,4%"
same,"Futterverwertung (kg Zunahme/kg Futter), Abweichung zur Kontrolle","[3]; 8 ppm vs 0 ppm control, lambs","+50,5%"
same,"Gewichtszunahme, Abweichung zur Kontrolle","[3]; 8 ppm vs 0 ppm control, lambs","+57,3%"
